One data set deals with T. cruzi epimastigotes. The experiment in a line: Trypanocidal capacity assay (alamarBlue), epimastigotes. The format is cell-based, Trypanosoma cruzi. To be noted: for SI (CC50/IC50), T. cruzi: epimastigotes vs murine macrophages; for IC50: epimastigote stage, read-out: T. cruzi IC50 (µM ± SD). The method, then:
(§1) To perform the experiments, promastigotes of L. amazonensis (MHOM/BR/77/LTB0016) and L. donovani (MHOM/IN/90/GE1F8R) and epimastigote T. cruzi (Y strain) were employed. Leishmania species were cultured in Schneider’s medium (Sigma-Aldrich, Madrid, Spain) at 26 °C supplemented with 10% fetal bovine serum (VWR, Biowest, Nuaillé, France) as well as in RPMI 1640 medium (Gibco, Thermo Fisher, Madrid, Spain). Epimastigotes of T. cruzi were cultured in Liver Infusion Tryptose (LIT) medium supplemented with 10% fetal bovine serum at 26 °C. For the cytotoxicity assays, murine macrophage cell line J774A.1 (ATCC TIB-67) was maintained at 37 °C in a 5% CO2 atmosphere in RPMI 1640 medium supplemented with 10% fetal bovine serum.
For the evaluation against the epimastigote stage of T. cruzi, assays were performed following the same procedure mentioned in Section 3.5.1., modifying the density to 2 × 10^5 parasite/well and using LIT medium.

Data set [1] in a line: Cytotoxicity assay (alamarBlue). The format is cell-based, murine. To be noted: mouse, J774A.1 macrophage cell line; J774A.1, 24 h; read-out: Murine Macrophages CC50. Here is the method:
as §1
(§2) The cytotoxicity was evaluated using a macrophage cell line J774A.1 in RPMI medium. Macrophages were plated and at 10^5 macrophages/well and, subsequently, serial dilution of samples were added to the plates. After 24 h of incubation cell viability was determined by the alamarBlue® [28].
(The colour change of resazurin is a common sign of viable cells or microbes.)

For data set [2], the system named is L. amazonensis promastigotes. The experiment in a line: Leishmanicidal activity assay (alamarBlue), promastigotes. The format is cell-based, Leishmania amazonensis. To be noted: for IC50 / fold more potent than the reference drug against L. amazonensis: promastigote stage; for IC50: read-out: L. amazonensis IC50 (µM ± SD); for fold more potent than the reference drug against L. amazonensis: vs miltefosine; for SI (CC50/IC50), L. amazonensis: promastigotes vs murine macrophages. The method, then: as §1
(§3) Promastigote in logarithmic phase were used for plate preparation, and the in vitro antiprotozoal assay was performed in 96-well plates. The different fractions or compounds were serially diluted on the wells and 10^6 parasites/mL were finally added. The activity of the fraction was calculated by the alamarBlue® method. In addition, the active pure molecules were tested against the amastigote stage of L. amazonensis.

Data set [3] relates to L. donovani promastigotes. The description is as above. Format: cell-based, Leishmania donovani. To be noted: for IC50: promastigote stage; for SI (CC50/IC50), L. donovani: promastigotes vs murine macrophages. Here is the method: as §1, §3
Data set [4] concerns intracellular amastigote stage of L. amazonensis. Briefly: Amastigote activity assay (parasite rescue and transformation, alamarBlue). Format: cell-based, Leishmania amazonensis. To be noted: for IC50: intracellular amastigote stage, read-out: L. amazonensis IC50 (µM ± SD); for SI (CC50/IC50), L. amazonensis amastigote: amastigotes vs murine macrophages; for fold more potent than the reference drug against L. amazonensis amastigotes: intracellular amastigote, vs miltefosine. The method, then:
as §3
The amastigote activity was performed according to Jain et al.. After allowing the transformation of rescued amastigotes to promastigotes, the activity was evaluated by AlamarBlue method. After incubation, the fluorescence was measured in a Perkin Elmer EnSpire spectrofluorometer and fluorescence was measured at emission peak 585 nm.

Data set [5] relates to L. amazonensis. Briefly: Measurement of ATP (Cell Titer-Glo). To be noted: IC90, 24 h. Format: cell-based, Leishmania amazonensis. (In general: In ATP-based viability assays light output follows the ATP content of the culture.)
Protocol: To determine the ATP level of the parasites, the Cell Titer-Glo® Luminescent Cell Viability Assay (Promega, Madison, WI, USA) was used following the manufacturer’s instructions after incubation of the parasites with the calculated IC90 of the tested withanolides for 24 h.
The subject of another data set is T. cruzi. The experiment in a line: Measurement of ATP (Cell Titer-Glo). Format: cell-based, Trypanosoma cruzi. To be noted: IC90, 24 h.
For data set [6], the system named is L. amazonensis. The experiment in a line: Chromatin condensation determination (Hoechst 33342/propidium iodide). The format is cell-based, Leishmania amazonensis. To be noted: IC90, 24 h. The method, then: The detection of condensed chromatin, was performed using the Vybrant™ Apoptosis Assay Kit #5, Hoechst 33342/Propidium Iodide (Invitrogen, Carlsbad, CA, USA). Parasites were incubated with the IC90 of the pure compounds for 24 h, then collected and centrifuged. The cell pellet was resuspended in RPMI, added to a black plate and incubated with the Hoechst 33342 and the propidium iodide. Then the plate was protected from light for 20 min at 4 °C. The EVOS FL Cell Imaging System (Invitrogen, ThermoFisher, Carlsbad, CA, USA) was used to observe the cells, using the DAPI (Hoechst) and RFP (PI) Light Cubes.

Data set [7] deals with murine macrophage cell line J774A.1. The experiment in a line: Cytotoxicity assay (alamarBlue). The format is cell-based. Here is the method:
as §1, §2

These results are taken from publication PMC6963971, “Withanolides from Withania aristata as Antikinetoplastid Agents through Induction of Programmed Cell Death” (Pathogens, 2019).

As a reminder, the CC50 is the concentration that lowers cell viability or growth by half. What is called IC50 is the concentration that gives 50% inhibition.

Several values for one entry are separate records, joined by “and”; a condition that tells them apart may be missing. Equal entries are not always repeated. Where two headings read alike, the source gives them in different places.

Regarding `O=C(Cn1ccnc1[N+](=O)[O-])NCc1ccccc1` [Benznidazole], the “SI (CC50/IC50), T. cruzi” value with T. cruzi epimastigotes is 57.54. Further, the CC50 at 24 h in data set [1] was 104 µg/mL and 400 µM.
As to `CC1=C(CO)C(=O)O[C@@H]([C@@H](C)[C@H]2CC[C@H]3[C@@H]4C[C@H]5O[C@]56[C@@H](O)C=CC(=O)[C@]6(C)[C@H]4CC[C@]23C)C1` [Compound 1, withaferin A], in data set [2] (Leishmania amazonensis), the IC50 was 0.83 ± 0.07 µM. For the same compound, in data set [2], the “fold more potent than the reference drug against L. amazonensis” value is reported as 7.8 fold and the “SI (CC50/IC50), L. amazonensis” value is on record as 14.36. For the same compound, the IC50 in data set [3] (Leishmania donovani, read-out: L. donovani IC50 (µM ± SD)) came to 13.2 ± 1.16 µM. The “SI (CC50/IC50), L. donovani” value in data set [3] turned out to be 0.91. Moreover, in the data set with T. cruzi epimastigotes (Trypanosoma cruzi), the IC50 turned out to be 1.02 ± 0.1 µM. For the same compound, in the data set on T. cruzi epimastigotes, the “fold more potent than benznidazole against T. cruzi epimastigotes” value was 6.8 fold and the “SI (CC50/IC50), T. cruzi” value amounted to 11.69. Further, the half-maximal cytotoxic concentration (CC50) at 24 h in [1] came to 11.9 ± 1.08 µM. For the same compound, the IC50 in [4] (Leishmania amazonensis) is 0.055 ± 0.009 µM. In addition, in [4], the “SI (CC50/IC50), L. amazonensis amastigote” value is on record as 216.73 and the “fold more potent than the reference drug against L. amazonensis amastigotes” value is listed as 56 fold. Moreover, the “total ATP level” value with L. amazonensis [5] is “strong decrease”. Further, the ATP level entry in the data set on T. cruzi is “slight decrease”. Also, the propidium iodide staining result with L. amazonensis [6] was “staining in red was observed”.
As to `CCCCCCCCCCCCCCCCOP(=O)([O-])OCC[N+](C)(C)C` [Miltefosine, reference compound], the “SI (CC50/IC50), L. amazonensis” value in data set [2] is 11.14. For the same compound, the IC50 worked out at 1.35 µg/mL in data set [3] (Leishmania donovani, read-out: L. donovani IC50) and 3.12 ± 0.12 µM in [4] (Leishmania amazonensis). Besides, the “SI (CC50/IC50), L. donovani” value in data set [3] is 21.81. Also, the CC50 at 24 h in data set [1] is 29.4 µg/mL and 72.2 µM. The “SI (CC50/IC50), L. amazonensis amastigote” value in data set [4] was 23.13.
Take witharistatin [Compound 3]: in data set [2], the “fold more potent than the reference drug against L. amazonensis” value came to 2.3 fold and the IC50 worked out at 2.82 ± 0.07 µM. Also, the 50% inhibitory concentration (IC50) in data set [3] (read-out: L. donovani IC50 (µM ± SD)) is 20.9 ± 1.33 µM. Also, in the data set with T. cruzi epimastigotes, the 50% inhibitory concentration (IC50) came out at 2.41 ± 0.11 µM and the “fold more potent than benznidazole against T. cruzi epimastigotes” value was determined as 2.9 fold. The CC50 in [7] came to 12.3 ± 1.16 µM. In data set [4], the “SI (CC50/IC50), L. amazonensis amastigote” value worked out at 58.66; the half-inhibitory concentration (IC50) turned out to be 0.209 ± 0.028 µM; the “fold more potent than the reference drug against L. amazonensis amastigotes” value is 14.9 fold.
